Data: patent publication US20180186742A1, “PICOLINAMIDES AS FUNGICIDES” (Dow AgroSciences LLC, priority 2017, published 2018)
Like-named read-outs stand apart in the source and are kept apart here.

Key:
Type in all cases: in vivo
[1] = system: Phakopsora pachyrhizi; experiment: Asian soybean rust (PHAKPA), disease control on soybean seedlings; details: High volume application at 25 ppm
Method in brief: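 Two-week-old Williams 82 soybean seedlings were sprayed to run-off with compound in acetone/water (1:9) containing 0.011% Tween 20. Inoculation was 3 days before (curative) or 1 day after (protectant) treatment, followed by 24 h dark dew at 22 °C, 100% RH, then 23 °C; disease severity scored on sprayed leaves.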

[2] = system: Puccinia triticina; experiment: Wheat brown rust (PUCCRT), disease control on wheat seedlings; details: for pest or weed control at 121.5 g/ha: low volume application at 121.5 g/H; for pest or weed control at 100 ppm: high volume application at 100 ppm
Method in brief: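 Compounds in acetone, diluted with nine volumes of water containing 110 ppm Triton X-100, sprayed to run-off on first-leaf Yuma wheat seedlings; track-spray tests used EC formulations with 0.1% Trycol 5941. Puccinia triticina spores applied before or after treatment. Overnight dark dew room at 22° C, 100% humidity, then greenhouse at 24° C.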

[3] = system: Zymoseptoria tritici; experiment: Leaf blotch of wheat (SEPTTR), disease control on wheat seedlings; details: for pest or weed control at 121.5 g/ha: low volume application at 121.5 g/H; for pest or weed control at 100 ppm: high volume application at 100 ppm
Method in brief: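 Yuma wheat seedlings with the first leaf fully emerged were sprayed to run-off with compound in acetone plus nine volumes of water containing 110 ppm Triton X-100; track-spray tests used EC formulations with 0.1% Trycol 5941. Z. tritici inoculation came before or after treatment, followed by 100% RH dew periods and a 20 °C greenhouse. Percent control was calculated from severity versus untreated plants.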

[4] = 24 h, 1 Day Protectant, read-out: PHAKPA 1DP disease control rating
[5] = 72 h, 3 Day Curative, read-out: PHAKPA 3DC disease control rating
[6] = 24 h, 1 Day Protectant, wheat brown rust, read-out: PUCCRT 1DP disease control, LV activity
[7] = 72 h, 3 Day Curative, wheat brown rust, read-out: PUCCRT 3DC disease control, LV activity
[8] = 24 h, 1 Day Protectant, wheat leaf blotch, read-out: SEPTTR 1DP disease control, LV activity
[9] = 72 h, 3 Day Curative, wheat leaf blotch, read-out: SEPTTR 3DC disease control, LV activity
[10] = 24 h, 1 Day Protectant, read-out: PUCCRT disease control, 1DP, LV activity
[11] = 72 h, 3 Day Curative, read-out: PUCCRT disease control, 3DC, LV activity
[12] = 24 h, 1 Day Protectant, read-out: SEPTTR disease control, 1DP, LV activity
[13] = 72 h, 3 Day Curative, read-out: SEPTTR disease control, 3DC, LV activity

| SMILES | pest or weed control at 25 ppm [1, 4] [%] | pest or weed control at 25 ppm [1, 5] [%] | pest or weed control at 121.5 g/ha [2, 6] [%] | pest or weed control at 121.5 g/ha [2, 7] [%] | pest or weed control at 121.5 g/ha [3, 8] [%] | pest or weed control at 121.5 g/ha [3, 9] [%] | pest or weed control at 121.5 g/ha [2, 10] [%] | pest or weed control at 121.5 g/ha [2, 11] [%] | pest or weed control at 121.5 g/ha [3, 12] [%] | pest or weed control at 121.5 g/ha [3, 13] [%] | pest or weed control at 100 ppm ([2]; 24 h, 1 Day Protectant, read-out: PUCCRT disease control, 1DP, HV activity) [%] | pest or weed control at 100 ppm ([2]; 72 h, 3 Day Curative, read-out: PUCCRT disease control, 3DC, HV activity) [%] | pest or weed control at 100 ppm ([3]; 24 h, 1 Day Protectant, read-out: SEPTTR disease control, 1DP, HV activity) [%] | pest or weed control at 100 ppm ([3]; 72 h, 3 Day Curative, read-out: SEPTTR disease control, 3DC, HV activity) [%] |
| --- | --- | --- | --- | --- | --- | --- | --- | --- | --- | --- | --- | --- | --- | --- |
| COc1ccnc(C(=O)N[C@@H](C)C(=O)O[C@@H](C)[C@H](c2ccc(F)cc2F)C(C)C)c1OC(C)=O [Compound 365] | > 80 | > 80 | > 80 | > 80 | > 80 | > 80 |  |  |  |  |  |  |  |  |
| COc1ccnc(C(=S)N[C@@H](C)C(=O)O[C@@H](C)[C@@H](c2ccccc2)C2CCCC2)c1OC(C)=O [Compound 177] | > 80 | < 0 |  |  |  |  | < 80 | < 0 | < 80 | < 0 |  |  |  |  |
| COc1ccnc(C(=O)N[C@@H](C)C(=O)O[C@@H](C)[C@@H](c2ccc(C)cc2C)C2CCCC2)c1OC(C)=O [Compound 201] | < 80 | < 0 |  |  |  |  | > 80 | < 80 | < 80 | < 80 |  |  |  |  |
| COc1ccnc(C(=O)N[C@H](C(=O)O[C@@H](C)[C@H](c2ccc(F)cc2C)C(C)C)C(C)C)c1OC(C)=O [Compound 347] | > 80 | > 80 |  |  |  |  | > 80 | < 80 | > 80 | > 80 |  |  |  |  |
| COc1cc(F)ccc1[C@@H](C1CCCC1)[C@H](C)OC(=O)[C@H](C)NC(=O)c1nccc(OC)c1OCOC(C)=O [Compound 234] | > 80 | < 0 |  |  |  |  | > 80 | < 80 | < 80 | < 80 |  |  |  |  |
| CCC(C)[C@@H](c1ccc(F)cc1OC)[C@H](C)OC(=O)[C@H](C)NC(=O)c1nccc(OC)c1OC(C)=O (stereo partly shown) [Compound 230] | > 80 | < 80 |  |  |  |  | > 80 | > 80 | > 80 | < 80 |  |  |  |  |
| COc1ccnc(C(=O)NCC(=O)O[C@@H](C)[C@H](c2ccc(F)cc2C)C(C)C)c1OC(C)=O [Compound 346] | > 80 | < 80 |  |  |  |  | > 80 | > 80 | < 80 | < 80 |  |  |  |  |
| COc1ccnc(C(=O)N[C@@H](C)C(=O)O[C@@H](C)[C@H](c2ccc(F)c(F)c2)C(C)C)c1OC(C)=O [Compound 244] | > 80 | < 80 |  |  |  |  | > 80 | > 80 | > 80 | < 80 |  |  |  |  |
| COc1ccc([C@H](C(C)C)[C@H](C)OC(=O)[C@H](C)NC(=O)c2nccc(OC)c2OC(C)=O)cc1 [Compound 383] | > 80 | < 80 | > 80 | < 80 | < 80 | < 80 |  |  |  |  |  |  |  |  |
| COc1ccc([C@H](C(C)C)[C@H](C)OC(=O)[C@H](C)NC(=O)c2nccc(OC)c2OCOC(C)=O)cc1 [Compound 382] | > 80 | < 80 | > 80 | > 80 | < 80 | > 80 |  |  |  |  |  |  |  |  |
| COc1ccnc(C(=O)N[C@@H](C)C(=O)O[C@@H](C)[C@H](c2cc(C)ccc2C)C(C)C)c1OC(C)=O [Compound 358] | > 80 | < 80 |  |  |  |  | > 80 | < 80 | < 80 | < 80 |  |  |  |  |
| CC[C@H](C)[C@H](NC(=O)c1nccc(OC)c1OC(=O)CCOC)C(=O)O[C@@H](C)[C@H](c1ccc(F)cc1C)C(C)C [Compound 352] | > 80 | < 80 |  |  |  |  | > 80 | < 80 | < 80 | < 80 |  |  |  |  |
| COc1ccnc(C(=O)N[C@@H](C)C(=O)O[C@@H](C)[C@H](c2ccc(F)cc2C)C(C)C)c1OCOC(C)=O [Compound 215] | > 80 | > 80 |  |  |  |  | > 80 | > 80 | > 80 | > 80 |  |  |  |  |
| COc1ccnc(C(=O)N[C@@H](C)C(=O)O[C@@H](C)[C@@H](c2ccc(C)cc2C)C2CCCCC2)c1OCOC(C)=O [Compound 206] | < 80 | < 0 |  |  |  |  | < 80 | < 0 | < 80 | < 80 |  |  |  |  |
| COc1cc(F)ccc1[C@@H](C(C)C)[C@H](C)OC(=O)[C@H](C)NC(=O)c1nccc(OC)c1OC(C)=O [Compound 221] | < 80 | < 80 |  |  |  |  | < 80 | < 80 | < 80 | > 80 |  |  |  |  |
| COc1ccnc(C(=O)N[C@@H](C)C(=O)O[C@H](C)[C@H](c2ccc(F)cc2C)C2CCCCC2)c1OCOC(C)=O [Compound 199] | < 80 | < 80 |  |  |  |  | < 80 | < 0 | > 80 | < 80 |  |  |  |  |
| COc1ccnc2c(=O)n([C@@H](C)C(=O)O[C@@H](C)[C@@H](c3ccc(C)cc3C)C3CCCC3)c(=O)oc12 [Compound 209] | < 80 | < 0 |  |  |  |  | < 0 | < 0 | < 80 | < 80 |  |  |  |  |
| COc1cc[n+]([O-])c(C(=O)N[C@@H](C)C(=O)O[C@@H](C)[C@@H](c2ccc(C)cc2C)C2CCCC2)c1O [Compound 212] | < 80 | < 80 |  |  |  |  | < 80 | < 0 | < 0 | < 0 | > 80 | < 80 | < 80 | > 80 |
| COCCC(=O)Oc1c(OC)ccnc1C(=O)NCC(=O)O[C@@H](C)[C@H](c1ccc(F)cc1C)C(C)C [Compound 350] | > 80 | > 80 |  |  |  |  | > 80 | > 80 | < 80 | < 80 |  |  |  |  |
| COc1ccnc(C(=O)N[C@@H](C)C(=O)O[C@@H](C)[C@@H](c2ccc(F)cc2C)C2CCCC2)c1OCOC(C)=O [Compound 193] | < 80 | < 80 |  |  |  |  | < 80 | < 80 | < 0 | < 80 |  |  |  |  |
